One data set deals with HepaRG cells. In words: Incubations with HepaRG cells, metabolite identification by LC-HRMS/MS. The format is in vitro ADME, human. Conditions: 24 h; for Absolute peak area, HepaRG [25 μM]: 25 μM parent NPS; for Absolute peak area, HepaRG [25 μM] / Absolute peak area, HepaRG [250 μM]: cell culture medium, one replicate of n = 3, n.d. = not detected; for Absolute peak area, HepaRG [250 μM]: 250 μM parent NPS.

The conditions of data set [1]: cited from earlier work; for Detection in pHLS9 [25 µM]: n = 2, according to literature.
For data set [2] the following is noted: human biosamples after intake of ephylone and 4F-PHP; ref Wagmann et al., [2019b]; cited from earlier work.
Data set [3] deals with zebrafish larvae. Briefly: Zebrafish larvae exposure, metabolite identification by LC-HRMS/MS. Conditions: 24 h; for Absolute peak area, Zebrafish larvae [100 µM]: 100 µM parent NPS in medium; for Absolute peak area, Zebrafish larvae [100 µM] / Absolute peak area, Zebrafish larvae [25 μM]: larvae 4 dpf, larvae extract, one replicate of n = 3, n.d. = not detected; for Absolute peak area, Zebrafish larvae [25 μM]: 25 μM 4F-MDMB-BINACA in medium.

Data set [4] is described as follows: Incubations with pooled human liver S9 fraction (pHLS9), metabolite identification by LC-HRMS/MS. The format is in vitro ADME. Conditions: 25 μM 4F-MDMB-BINACA, one replicate of n = 2, n.d. = not detected; for Absolute peak area, pHLS9 1 h [25 μM]: 1 h incubation; for Absolute peak area, pHLS9 6 h [25 μM]: 6 h incubation. The procedure:
According to published procedures (Richter et al., [2017b], [2019b]; Caspar et al., [2018b]; Wagmann et al., [2019b],[c]), the final incubation volume per reaction tube was 150 μl, with a final protein concentration of 2 mg/ml. The given concentrations represent final concentrations. A preincubation for 10 min at 37°C with UGT reaction mixture solution B (containing alamethicin, 25 μg/ml), MgCl2 (2.5 mM), NADP^+ (0.6 mM), isocitrate (2.5 mM), isocitrate dehydrogenase (0.8 U/ml), superoxide dismutase (100 U/ml), acetyl coenzyme A (0.1 mM), phosphate buffer (90 mM, pH 7.4), and pHLS9 (2 mg/ml) was done. Afterwards, UGT reaction mixture solution A (containing UDP glucuronic acid, 2.5 mM), PAPS (40 μM), SAM (1.2 mM), dithiothreitol (1 mM), and glutathione (10 mM) were added, as well as 25 μM 4F-MDMB-BINACA to start the reactions. The mixture was incubated for 360 min. Total amount of organic solvent in incubation mixtures was <2% (Chauret et al., [1998]). After 60 min, an aliquot of the reaction mixture (60 μl) was transferred in another reaction tube containing 20 μl of ice-cold acetonitrile to terminate the reactions. The remaining aliquot (90 μl) was incubated for an additional 300 min, and then the reactions were stopped by adding 30 μl of ice-cold acetonitrile. Thereafter, the reaction tubes were cooled at −20°C for 30 min prior to centrifugation at 18,407 × g for 2 min. The supernatants (50 μl) were transferred into autosampler vials, and 1 μl was injected onto the LC-HRMS/MS system. Control samples without pHLS9 and blank samples without substrate were prepared to confirm the absence of non-metabolically formed and interfering compounds, respectively. All incubations were performed in duplicate.
According to a previous study (Richter et al., [2019a]), a Thermo Fisher Scientific (TF, Dreieich, Germany) Dionex UltiMate 3000 Rapid Separation (RS) UHPLC system with a quaternary UltiMate 3000 RS pump and an UltiMate 3000 RS autosampler controlled by the TF Chromeleon software version 6.8 was used. The LC system was coupled to an Orbitrap-based TF Q-Exactive Plus equipped with a heated electrospray ionization II (HESI-II) source. Calibration was done prior to analysis with a Positive Cal Mix (Supelco, Bellefonte, PA, USA) at a flow rate of 3 μl/min using a syringe pump. The conditions of the LC system were as follows: TF Accucore PhenylHexyl column (100 × 2.1 mm, 2.6 μm particle size); gradient elution with 2 mM ammonium formate solution containing 0.1% (v/v) formic acid (eluent A) and 2 mM ammonium formate solution in acetonitrile/methanol (50:50, v/v) containing 0.1% (v/v) formic acid, and 1% (v/v) water (eluent B). […] The following gradient was used: 0–1.0 min hold 1% B, 1–10 min to 99% B, 10–11.5 min hold 99% B, 11.5–13.5 min hold 1% B. The HESI-II source conditions were as follows: ionization mode, positive; heater temperature, 320°C; ion transfer capillary temperature, 320°C; sheath gas, 60 arbitrary units (AU); auxiliary gas, 10 AU; spray voltage, 4.00 kV; and S-lens RF level, 50.0. Mass spectrometry experiments were performed using high-resolution (HR) full scan mode and a targeted MS^2 mode with an inclusion list for each NPS. The inclusion list contained m/z values of metabolites, which were likely to be formed for example hydroxy, oxo, carboxy, dealkyl, demethylenylated, and defluorinated metabolites (phase I) as well as sulfates and glucuronides (phase II) and combinations of them. Full scan settings were as follows: resolution, 35,000; automatic gain control (AGC) target, 3e6; maximum injection time (IT), 120 ms; scan ranges, 3,4-DMA-NBOMe m/z 100–700, ephylone m/z 200–600, 4F-MDMB-BINACA m/z 150–700, 4F-PHP m/z 200–600, and 1P-LSD m/z 250–700. The settings for the targeted MS^2 mode with the respective inclusion lists were as follows: resolution, 17,500; AGC target, 2e5; maximum IT, 250 ms; loop count, 5; isolation window, 1.0 m/z; stepped normalized collision energy (NCE), 17.5, 35, 52.5%; pick others, enabled. […]

For data set [5], the system named is zebrafish larvae. In words: In vivo maximum-tolerated concentration (MTC) study in zebrafish larvae. Also on record: species or system zebrafish (Danio rerio). The settings on record: for Survival rate: 24-h treatment, fifteen larvae. How it is done: Internal protocols based on published standard methods (Westerfield, [2007]) were used to perform zebrafish husbandry and the maximum-tolerated concentration (MTC) testing was based on a previous study (Richter et al., [2019a]). Danieau's medium [17 mM NaCl, 2 mM KCl, 0.12 mM MgSO4, 1.8 mM Ca(NO3)2, 1.5 mM HEPES, pH 7.1–7.3, and 1.2 μM methylene blue] at 28°C was used to raise zebrafish larvae of the AB wild-type strain. For MTC testing, 96-well plates were used with 100 μl of medium and one larva per well. Drug exposition was started 4 dpf using 0, 0.01, 0.1, 1, 10, 50, or 100 μM final concentrations of 3,4-DMA-NBOMe, ephylone, 4F-MDMB-BINACA, 4F-PHP, or 1P-LSD, respectively. The drug exposure in the incubator at 28°C lasted 24 h. The final DMSO concentration was 1% (v/v) for all experiments. Monitoring of the larvae was done using a LEICA M205 FA stereo microscope (Leica Mikrosysteme Vertrieb GmbH, Wetzlar, Germany) to detect developmental defects and/or decreased survival rates. Fifteen larvae were used for each experiment.

The test system of another data set is monooxygenases. The settings on record: initial monooxygenases activity screenings described elsewhere; ref Caspar et al., [2018a]; Wagmann et al., [2019b],[c]; cited from earlier work.
Where [6] appears, read: ephylone and metabolites, ref Wagmann et al., 2019a.
The mark [7] stands for this setting: 25 μM, ref Caspar et al., [2018b].

Where two headings read alike, the source gives them in different places.

For the compound `CCCC(NCC)C(=O)c1ccc(O)c(O)c1` (stereo not drawn) [ME2], in the data set on HepaRG cells, the “Absolute peak area, HepaRG [25 μM]” value is 1.72E+05 and the “Absolute peak area, HepaRG [250 μM]” value is on record as 6.37E+05. Also, the “Detection in pHLS9 [25 µM]” value in data set [1] (setting [6]) is recorded as “+”. Further, the “Signals with the highest abundance in human plasma and/or urine” value in data set [2] was “highest ephylone-related signals”. For the same compound, the “Absolute peak area, Zebrafish larvae [100 µM]” value (“Absolute peak area … [100 µM]” for short) in the data set with zebrafish larvae [3] is 4.44E+06.
`CC(C)(CO)C(NC(=O)c1nn(CCCCF)c2ccccc12)C(=O)O` (stereo not drawn) [MB13]: in data set [4], the “Absolute peak area, pHLS9 1 h [25 μM]” value is 7.30E+03 and the “Absolute peak area, pHLS9 6 h [25 μM]” value was found to be 6.42E+05. Further, in the data set with HepaRG cells, the “Absolute peak area, HepaRG [250 μM]” value is 3.13E+07. Further, the “Absolute peak area, Zebrafish larvae [25 μM]” value in the data set on zebrafish larvae [3] stood at 4.57E+05.
In the case of `CC1(C)COC(=O)C1NC(=O)c1nn(CCCC(=O)O)c2ccccc12` (stereo not drawn) [MB9], the “Absolute peak area, pHLS9 6 h [25 μM]” value in data set [4] came to 1.57E+05. Besides, the “Absolute peak area, Zebrafish larvae [25 μM]” value in the data set on zebrafish larvae [3] is recorded as 2.53E+06.
Regarding `CC(C)(C)[C@H](NC(=O)c1nn(CCCCO)c2ccccc12)C(=O)O` [MB7], in data set [4], the “Absolute peak area, pHLS9 6 h [25 μM]” value came to 1.91E+06. In addition, in the data set on HepaRG cells, the “Absolute peak area, HepaRG [25 μM]” value worked out at 1.25E+06 and the “Absolute peak area, HepaRG [250 μM]” value worked out at 1.34E+07. In the data set on zebrafish larvae [3], the “Absolute peak area, Zebrafish larvae [25 μM]” value was found to be 5.96E+04.
Consider `COc1ccccc1CNC(C)Cc1ccc(OC)c(OC)c1` (stereo not drawn) [3,4-DMA-NBOMe, 1-[3,4-dimethoxy]-N-[ortho-methoxybenzyl]propane-2-amine], for which, in the data set on HepaRG cells, the “Absolute peak area, HepaRG [25 μM]” value is on record as 1.48E+09 and the “Absolute peak area, HepaRG [250 μM]” value is reported as 1.03E+10. Moreover, in the data set with HepaRG cells (25 μM), the “Number of phase I metabolites detected, HepaRG [25 μM]” value is 6 and the “Number of phase II metabolites detected, HepaRG [25 μM]” value is 4. For the same compound, in the data set on HepaRG cells (250 μM), the “Number of phase I metabolites detected, HepaRG [250 μM]” value is 10 and the “Number of phase II metabolites detected, HepaRG [250 μM]” value came to 7. Moreover, the Survival rate with zebrafish larvae [5] (0.01 μM, larvae 4 dpf) turned out to be 100%. In the data set with zebrafish larvae [5] (0.1 μM, larvae 4 dpf), this compound gave a Survival rate of 100%. In the data set on zebrafish larvae [5] (1 μM, larvae 4 dpf), this compound registered a Survival rate of 100%. In addition, the Survival rate in the data set on zebrafish larvae [5] (10 μM, larvae 4 dpf) is 100%. Besides, the Survival rate with zebrafish larvae [5] (50 μM, larvae 4 dpf) is reported as 100%. In the data set with zebrafish larvae [5] (100 μM, larvae 4 dpf), the Survival rate is reported as 100%. For the same compound, the “Survival rates for all tested concentrations” value with zebrafish larvae [5] (0.01 to 100 μM, larvae 4 dpf, 24 h) is listed as 100%. Further, in the data set on zebrafish larvae [5] (24 h exposure via medium), the “Concentration considered non-toxic for zebrafish larvae (4 dpf)” value turned out to be 100 µM. In addition, the Malformations result in the data set on zebrafish larvae [5] (up to 100 μM, larvae 4 dpf, 24 h) is on record as “no malformations”. For the same compound, in data set [1] (setting [7]), the “Number of phase I metabolites detected, pHLS9 [25 μM]” value is 6 (Caspar et al., [2018b]) and the “Number of phase II metabolites detected, pHLS9 [25 μM]” value was 5 (Caspar et al., [2018b]). Further, the “Detection in pHLS9 [25 µM]” value in data set [1] (3,4-DMA-NBOMe and metabolites, ref Caspar et al., 2018) is recorded as “+”. In the data set with monooxygenases, the “Monooxygenases involved in metabolism” value was “CYP3A4 was described to be involved in the N-dealkylation and CYP2C19 and CYP2D6 in the O-demethylation and hydroxylation”. Further, in the data set with zebrafish larvae [3] (100 μM in medium), the “Number of phase I metabolites detected, Zebrafish larvae” value came out at 9 and the “Number of phase II metabolites detected, Zebrafish larvae” value is listed as 7. For the same compound, the “Absolute peak area … [100 µM]” value with zebrafish larvae [3] worked out at 6.22E+09.
Consider `CCCC(N)C(=O)c1ccc2c(c1)OCO2` (stereo not drawn) [ME1], for which, in the data set with HepaRG cells, the “Absolute peak area, HepaRG [25 μM]” value worked out at 4.14E+06 and the “Absolute peak area, HepaRG [250 μM]” value worked out at 2.21E+07. Also, the “Detection in pHLS9 [25 µM]” value in data set [1] (setting [6]) was “+”. Besides, the “Signals with the highest abundance in human plasma and/or urine” value in data set [2] is listed as “highest ephylone-related signals”. The “Absolute peak area … [100 µM]” value in the data set with zebrafish larvae [3] is listed as 4.12E+06.
For the compound `CC(C)(C)[C@H](NC(=O)c1n[nH]c2ccccc12)C(=O)O` [MB3], in data set [4], the “Absolute peak area, pHLS9 1 h [25 μM]” value is on record as 9.07E+05 and the “Absolute peak area, pHLS9 6 h [25 μM]” value is given as 1.27E+06. For the same compound, in the data set with HepaRG cells, the “Absolute peak area, HepaRG [25 μM]” value is given as 3.99E+05 and the “Absolute peak area, HepaRG [250 μM]” value was determined as 6.92E+06.
As to `COC(=O)[C@@H](NC(=O)c1nn(CCCC(=O)O)c2ccccc12)C(C)(C)C` [MB15], in data set [4], the “Absolute peak area, pHLS9 1 h [25 μM]” value is 2.16E+06 and the “Absolute peak area, pHLS9 6 h [25 μM]” value was 3.34E+06. Besides, in the data set on HepaRG cells, the “Absolute peak area, HepaRG [25 μM]” value turned out to be 1.15E+04 and the “Absolute peak area, HepaRG [250 μM]” value is reported as 8.00E+06. Besides, the “Absolute peak area, Zebrafish larvae [25 μM]” value in the data set with zebrafish larvae [3] worked out at 2.60E+07.
With `CC1(C)COC(=O)C1NC(=O)c1nn(CCCCO)c2ccccc12` (stereo not drawn) [MB5], the “Absolute peak area, pHLS9 6 h [25 μM]” value in data set [4] came to 1.26E+06. For the same compound, the “Absolute peak area, HepaRG [250 μM]” value with HepaRG cells came to 2.40E+05. Besides, the “Absolute peak area, Zebrafish larvae [25 μM]” value in the data set on zebrafish larvae [3] is reported as 9.42E+05.
